Measurements reported in publication PMC10686834, “Targeting myeloid chemotaxis to reverse prostate cancer therapy resistance” (Nature, 2023).
Like-named read-outs stand apart in the source and are kept apart here.

Tests used:
[1] = test system: circulating CXCL1, CXCL2, CXCL5, CXCL6, CXCL7 and CXCL8; assay: Circulating cytokine analyses (Luminex, ELISA) in patient serum; assay type: in vivo, human; settings: serial serum samples
Method: Serum samples were collected at baseline, on day 1 of every cycle, and on cycle 1 day 15. CXCL2, CXCL5, CXCL6, CXCL7 and CXCL8 were measured in patient serum (diluted 1:2 except for CXCL7, which was diluted 1:200), then analysed using R&D Systems Luminex discovery assays using the Luminex 200 and interpolated using a five-parameter logistic curve fit. CXCL1 was measured in neat patient serum using the R&D Systems human GROα Quantikine ELISA using the Perkin Elmer Envision 2103 Multilabel plate reader and interpolated using linear regression. The Luminex and ELISA assays were validated to good clinical practice compliance by The ICR and included quality control samples of serum, unspiked or spiked with recombinant protein standard, from healthy volunteer serum in every analytical run. A list of the ELISA reagents is provided in Supplementary Table 9.

rat = settings: in vivo; cited from earlier work
[2] = design: method as in AZD5069 Investigator Brochure (IB); settings: ref AZD5069 Investigator Brochure (IB); cited from earlier work
[3] = test system: patients with advanced solid tumours or metastatic pancreatic ductal adenocarcinoma; settings: ref AZD5069 IB (07 July 2019), cited from earlier work
CYP2C8 = test system: CYP2C8; design: method as in AZD5069 Investigator Brochure (IB); settings: ref AZD5069 Investigator Brochure (IB); cited from earlier work
[4] = design: method as in AZD5069 Investigator Brochure (IB); settings: human mass balance study NCT01332903; ref AZD5069 Investigator Brochure (IB); cited from earlier work
[5] = test system: patients with ARSI-resistant mCRPC; assay: Phase 1 trial of AZD5069 plus enzalutamide: antitumour activity (RECIST v.1.1, PSA, CTC count); assay type: in vivo, human
Text: Patients needed to be on treatment for at least 12 weeks to be considered a responder. Thirteen patients had assessable measurable disease by Response Evaluation Criteria in Solid Tumors v.1.1. […] All patients classed as partial responders had radiologic progression-free survival of more than 6 months. […] Three of four patients classed as partial responders, for whom pre-treatment tissue biopsy was available for androgen receptor splice variant 7 (AR-V7) immunohistochemistry (IHC) including the patient who received only abiraterone previously, had tumour expressing AR-V7 protein.
Radiologic tumour responses were measured by computerized tomography of the thorax, abdomen and pelvis, bone scan, and, where indicated, whole-body magnetic resonance imaging, at baseline, once every 3 cycles, and then at the end of treatment if this was more than 8 weeks since the last scan. PSA and CTC count were measured at baseline, and then on day 1 of every cycle, and at the end of treatment. CTC counts were analysed using previously described methods.
Secondary endpoints were:(i) the rate of objective response, with objective response defined as confirmed soft tissue objective response by Response Evaluation Criteria in Solid Tumors v.1.1 in those with measurable disease, and/or PSA decline ≥50% confirmed 4 weeks or later, and/or CTC count conversion from ≥5 per 7.5 ml of blood at baseline to <5 per 7.5 ml of blood at nadir; (ii) pharmacokinetic parameters, including maximum concentration, area under the concentration–time curve; and (iii) pharmacodynamic changes including identifying patients whose blood NLR, neutrophil, and intratumour myeloid cell density decrease. Exploratory endpoints included blood cytokine levels and evaluation of tumour molecular profile on response.
Sample size was chosen pragmatically. According to the rule-based 3 + 3 design, which guided dose-escalation decisions, the cohort size was three patients and skipping of dose levels was not allowed. Patients who completed the DLT period or experienced a DLT during the DLT period were considered part of the evaluable population. Patients who received at least one dose of study drug were considered part of the safety population. To be evaluable for response, the patient must have met the eligibility criteria, received at least three cycles of trial medication, and have had baseline assessment of disease. Comparisons of baseline characteristics between patients classed as responders and those classed as non-responders were carried out using the two-sided Mann–Whitney U-test. Comparisons of paired pharmacokinetic and pharmacodynamic parameters were carried out using the two-sided paired Wilcoxon signed-rank test. Safety variables and pharmacokinetic and pharmacodynamic endpoints were summarized descriptively.

healthy volunteers = test system: healthy volunteers; design: method as in AZD5069 Investigator Brochure (IB); settings: ref AZD5069 Investigator Brochure (IB), cited from earlier work
[6] = 109 patients in two oncology studies
[7] = first partial responder at AZD5069 160 mg BD, at nadir (3–4 months)
[8] = partial responder at AZD5069 80 mg BD
[9] = partial responder at AZD5069 120 mg BD
[10] = second responder at AZD5069 160 mg BD

C[C@@H](Oc1cc(NS(=O)(=O)N2CCC2)nc(SCc2cccc(F)c2F)n1)[C@@H](O)CO [AZD5069]
levels of circulating CXCL1, CXCL2 and CXCL8 after treatment [1]: increased in a dose-dependent manner
levels of circulating CXCL5, CXCL6 and CXCL7 after treatment [1]: did not consistently increase
tolerated single doses (rat): up to 600 mg/kg
phototoxic potential [2]: low risk for phototoxic potential
causally-related AEs that led to treatment discontinuation ([3]; 109 patients in two oncology studies (four patients)): 3.7%
causally-related AEs of CTCAE ≥Grade 3: fatigue [3, 6]: 4.6%
causally-related AEs of CTCAE ≥Grade 3: neutropenia [3, 6]: 11.0%
causally-related AEs of CTCAE ≥Grade 3: neutrophil count decreased [3, 6]: 4.6%
causally-related AEs: decreased appetite [3, 6]: 20.2%
causally-related AEs: diarrhoea [3, 6]: 10.1%
causally-related AEs: fatigue [3, 6]: 22.9%
causally-related AEs: nausea [3, 6]: 11.9%
causally-related AEs: neutropenia [3, 6]: 15.6%
causally-related AEs: neutrophil count decreased [3, 6]: 11.0%
causally-related SAEs [3, 6]: 9.2%
fatal AE considered treatment-related [3, 6]: no fatal AE
most common AEs: decreased appetite [3, 6]: 35.8%
most common AEs: fatigue [3, 6]: 38.5%
most common AEs: nausea [3, 6]: 28.4%
patients with adverse events considered related to study treatment [3, 6]: 73.4%
neutrophil count decreased ([3]; Study NCT02499328, 40 mg BD dose (4/64)): 6.3%
neutrophil count decreased ([3]; Study NCT02499328, 80 mg BD dose (6/25)): 24%
IC50 (CYP2C8): ~100 µM
phase II glucose conjugate metabolite in urine [4]: < 5.3 % of dose
objective partial response rate (RECIST v.1.1 ≥30% decrease, PSA decline ≥50% and/or CTC conversion) ([5]; 21 response-evaluable patients, all dose levels, plus enzalutamide): 24%
CTC count ([5]; Patient 4 (as per Fig. 4a), C1D1): 5 CTC/7.5 ml blood
CTC count ([5]; Patient 4, C1D15): 2 CTC/7.5 ml blood
CTC count ([5]; Patient 4, C2D1): 1 CTC/7.5 ml blood
CTC count ([5]; Patient 4, C3D1): 5 CTC/7.5 ml blood
CTC count ([5]; Patient 4, C4D1): 3 CTC/7.5 ml blood
CTC count ([5]; Patient 4, C5D1): 5 CTC/7.5 ml blood
CTC count ([5]; Patient 4, C6D1): 5 CTC/7.5 ml blood
CTC count ([5]; Patient 4, C7D1): 3 CTC/7.5 ml blood
CTC count ([5]; Patient 4, C8D1): 12 CTC/7.5 ml blood
CTC count ([5]; Patient 4, C9D1): 14 CTC/7.5 ml blood
CTC count ([5]; Patient 4, C10D1): 33 CTC/7.5 ml blood
CTC count ([5]; Patient 4, C11D1): 34 CTC/7.5 ml blood
CTC count ([5]; Patient 4, C12D1): 57 CTC/7.5 ml blood
CTC count ([5]; Patient 4, C13D1): 52 CTC/7.5 ml blood
CTC count ([5]; Patient 4, C14D1): 53 CTC/7.5 ml blood
CTC count ([5]; Patient 4, C15D1): 96 CTC/7.5 ml blood
CTC count ([5]; Patient 4, C16D1): 235 CTC/7.5 ml blood
CTC count ([5]; Patient 4, C17D1): 86 CTC/7.5 ml blood
CTC count ([5]; Patient 4, C18D1): 97 CTC/7.5 ml blood
CTC count ([5]; Patient 4, Treatment Discontinuation): 119 CTC/7.5 ml blood
CTC count ([5]; Patient 10 (as per Fig. 4a), C1D1): 39 CTC/7.5 ml blood
CTC count ([5]; Patient 10, C1D15): 26 CTC/7.5 ml blood
CTC count ([5]; Patient 10, C2D1): 19 CTC/7.5 ml blood
CTC count ([5]; Patient 10, C3D1): 0 CTC/7.5 ml blood
CTC count ([5]; Patient 10, C4D1): 10 CTC/7.5 ml blood
CTC count ([5]; Patient 10, C5D1): 46 CTC/7.5 ml blood
CTC count ([5]; Patient 10, C9D1): 101 CTC/7.5 ml blood
CTC count ([5]; Patient 10, Treatment Discontinuation): 129 CTC/7.5 ml blood
radiologic progression-free survival of patients classed as partial responders ([5]; all five partial responders): more than 6 months
radiologic progression-free survival ([5]; first partial responder at AZD5069 160 mg BD): 8 months
PSA fall [5, 7]: 84%
decrease in nodal disease [5, 7]: 20%
PSA on treatment ([5]; first partial responder at AZD5069 160 mg BD, at nadir, from 344 ng ml^−1): 55 ng/mL
duration of CTC conversion [5, 8]: seven
time on trial [5, 8]: 16 months
CTC count ([5]; partial responder at AZD5069 80 mg BD, at cycle 2, baseline 9): 1 per 7.5 ml of blood
duration of radiologic and clinical responses [5, 9]: 11 months
reduction of measurable disease [5, 9]: 31%
PSA fall ([5]; partial responder at AZD5069 120 mg BD, after 5 cycles): 89%
PSA on treatment ([5]; partial responder at AZD5069 120 mg BD, after 5 cycles, from 98 ng ml^−1): 11 ng/mL
time to new bone metastases ([5]; partial responder at AZD5069 320 mg BD): 8 months
PSA reduction ([5]; partial responder at AZD5069 320 mg BD, after four cycles): 64%
PSA on treatment ([5]; partial responder at AZD5069 320 mg BD, after four cycles, from 129 ng ml^−1): 47 ng/mL
PSA change [5, 10]: no PSA decrease
radiologic progression-free survival [5, 10]: 8 months
CTC count, peak ([5]; second responder at AZD5069 160 mg BD, during cycle 1, baseline 11): 39 per 7.5 ml of blood
CTC count ([5]; second responder at AZD5069 160 mg BD, during cycle 4): 0 per 7.5 ml of blood
adverse effects considered to be related to treatment (healthy volunteers; 202 healthy volunteers): no clinically significant adverse effects
doses with a reduction in blood neutrophil counts (healthy volunteers; healthy volunteers): ≥ 5.45 mg
